In experiment [1] the target is full-length RORγt in Jurkat cells (Homo sapiens (Human), UniProt P51449). The experiment in a line: RORγt 5×RORE Assay in Jurkat Cells (Assay 2). The class given is cell-based. To be noted: 5×RORE Nanoluc luciferase reporter. On the technique in general: Reporter assays use an easily measured gene product as a stand-in for the process of interest.
The target in experiment [2] is recombinant RORγ Ligand Binding Domain (LBD) protein (Homo sapiens (Human), UniProt P51449). Kind of experiment: Radio-Ligand RORγ Binding Assay (Assay 1). As to conditions: competition with 25-hydroxy [26,27-3H]-cholesterol, SPA. In a few lines: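 Scintillation proximity competition against 25-hydroxy [26,27-^3H]-cholesterol (8.6 nM solution) for 6×His-GST-tagged RORγ LBD (24 nM solution) in HEPES pH 7.4 with CHAPS, β-octylglucopyranoside and DTT; semi-log compound dilutions, ~1 h total at rt with poly-Lys YSi beads. IC50 from four-parameter fit; Ki derived from [RL] and radioligand KD.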
recombinant RORγ Ligand Binding Domain (LBD) protein, sequence (P51449 269-508): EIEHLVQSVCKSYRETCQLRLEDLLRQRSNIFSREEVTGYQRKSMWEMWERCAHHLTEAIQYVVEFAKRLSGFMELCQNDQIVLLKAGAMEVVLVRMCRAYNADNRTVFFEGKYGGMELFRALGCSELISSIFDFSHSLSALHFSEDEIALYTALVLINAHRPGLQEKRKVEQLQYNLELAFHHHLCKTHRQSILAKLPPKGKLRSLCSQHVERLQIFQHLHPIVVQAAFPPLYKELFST

full-length RORγt in Jurkat cells, sequence (P51449 other isoform, or with tags, fused parts or gaps): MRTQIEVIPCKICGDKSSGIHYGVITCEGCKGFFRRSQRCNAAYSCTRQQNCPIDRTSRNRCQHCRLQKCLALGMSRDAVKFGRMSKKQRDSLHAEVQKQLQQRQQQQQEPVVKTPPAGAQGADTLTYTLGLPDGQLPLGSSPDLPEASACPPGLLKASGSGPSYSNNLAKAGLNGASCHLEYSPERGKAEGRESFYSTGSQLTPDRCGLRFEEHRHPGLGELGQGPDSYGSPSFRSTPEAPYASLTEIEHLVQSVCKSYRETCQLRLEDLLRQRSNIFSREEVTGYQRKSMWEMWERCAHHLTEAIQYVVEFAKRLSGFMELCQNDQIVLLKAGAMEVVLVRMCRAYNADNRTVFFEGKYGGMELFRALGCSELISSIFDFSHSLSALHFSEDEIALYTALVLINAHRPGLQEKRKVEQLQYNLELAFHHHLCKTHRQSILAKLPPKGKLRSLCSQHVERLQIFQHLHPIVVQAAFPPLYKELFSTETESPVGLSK

In the case of `CCS(=O)(=O)c1ccc(CNC(=O)c2ccc3c(c2)nc(C2CC2)n3Cc2cc(OC)cc(OC)c2)cc1` [I-103, 2-cyclopropyl-1-(3,5-dimethoxybenzyl)-N-(4-(ethylsulfonyl)benzyl)-1H-benzo[d]imidazole-5-carboxamide], the IC50 (commonly the concentration that gives 50% inhibition) in experiment [1] lay in the range of 100 to 1000 nM. Further, the Ki – broadly, a measure of affinity in units of concentration, obtained from inhibition or displacement – in experiment [2] is below 100 nM.
For `CCS(=O)(=O)c1ccc(CNC(=O)c2ccc3c(c2)nc(C2CC2)n3Cc2ccc(OC(F)(F)F)cc2)cc1` [I-104, 2-cyclopropyl-N-(4-(ethylsulfonyl)benzyl)-1-(4-(trifluoromethoxy)benzyl)-1H-benzo[d]imidazole-5-carboxamide], in that order: above 1000 nM and below 100 nM.
Consider `CCS(=O)(=O)c1ccc(CNC(=O)c2ccc3c(c2)nc(C2CC2)n3Cc2ccccc2OC(F)(F)F)cc1` [I-106, 2-cyclopropyl-N-(4-(ethylsulfonyl)benzyl)-1-(2-(trifluoromethoxy)benzyl)-1H-benzo[d]imidazole-5-carboxamide], for which the IC50 in experiment [1] lay within 100 to 1000 nM. Moreover, the Ki in experiment [2] is below 100 nM.
Turning to `CCS(=O)(=O)c1ccc(CNC(=O)c2ccc3c(c2)nc(C2CC2)n3Cc2cccc(OC(F)(F)F)c2)cc1` [I-109, 2-cyclopropyl-N-(4-(ethylsulfonyl)benzyl)-1-(3-(trifluoromethoxy)benzyl)-1H-benzo[d]imidazole-5-carboxamide], the IC50 in experiment [1] is below 100 nM. Further, in experiment [2], the Ki is below 100 nM.
In experiment [1], `CCS(=O)(=O)c1ccc(CNC(=O)c2ccc3c(c2)nc(C2CC2)n3Cc2cccc(OC(F)F)c2)cc1` [I-113, 2-cyclopropyl-1-(3-(difluoromethoxy)benzyl)-N-(4-(ethylsulfonyl)benzyl)-1H-benzo[d]imidazole-5-carboxamide] registered an IC50 below 100 nM. In addition, in experiment [2], the Ki is below 100 nM.
Compound `CCS(=O)(=O)c1ccc(CNC(=O)c2ccc3c(c2)nc(C2CC2)n3Cc2cc(OC)cc(OC(F)(F)F)c2)cc1` [I-115, 2-cyclopropyl-N-(4-(ethylsulfonyl)benzyl)-1-(3-methoxy-5-(trifluoromethoxy)benzyl)-1H-benzo[d]imidazole-5-carboxamide] displayed an IC50 in experiment [1] below 100 nM. Besides, in experiment [2], the Ki was below 100 nM.
`CCS(=O)(=O)c1ccc(CNC(=O)c2ccc3c(c2)nc(C2CC2)n3[C@@H](C)c2cccc3c2OC(F)(F)O3)cc1` [I-116, (S)-2-cyclopropyl-1-(1-(2,2-difluorobenzo[d][1,3]dioxol-4-yl)ethyl)-N-(4-(ethylsulfonyl)benzyl)-1H-benzo[d]imidazole-5-carboxamide] registered an IC50 in experiment [1] below 100 nM. Also, the Ki in experiment [2] is below 100 nM.
In the case of `CCS(=O)(=O)c1ccc(CNC(=O)c2ccc3c(c2)nc(C2CC2)n3Cc2cccc3c2OC(C)(C)C3)cc1` [I-118, 2-cyclopropyl-1-((2,2-dimethyl-2,3-dihydrobenzofuran-7-yl)methyl)-N-(4-(ethylsulfonyl)benzyl)-1H-benzo[d]imidazole-5-carboxamide], the IC50 in experiment [1] is above 1000 nM. For the same compound, the inhibitory constant (Ki) in experiment [2] is below 100 nM.
The corresponding values for `CCS(=O)(=O)c1ccc(CNC(=O)c2ccc3c(c2)nc(C2CC2)n3Cc2cccc(OC)c2OC)cc1` [I-119, 2-cyclopropyl-1-(2,3-dimethoxybenzyl)-N-(4-(ethylsulfonyl)benzyl)-1H-benzo[d]imidazole-5-carboxamide] are below 100 nM and below 100 nM.
For `O=C(O)CC1CCC(CNC(=O)c2ccc3c(c2)nc(C(F)(F)F)n3Cc2cccc3c2OC(F)(F)O3)CC1` (stereo not shown) [I-120, 2-(4-((1-((2,2-difluorobenzo[d][1,3]dioxol-4-yl)methyl)-2-(trifluoromethyl)-1H-benzo[d]imidazole-5-carboxamido)methyl)cyclohexyl)acetic acid], in that order: 100 to 1000 nM and below 100 nM.
The corresponding values for `N#Cc1ccc([C@H](CO)NC(=O)c2ccc3c(c2)nc(C(F)(F)F)n3Cc2cccc3c2OC(F)(F)O3)cc1` [I-122, (R)-N-(1-(4-cyanophenyl)-2-hydroxyethyl)-1-((2,2-difluorobenzo[d][1,3]dioxol-4-yl)methyl)-2-(trifluoromethyl)-1H-benzo[d]imidazole-5-carboxamide] are below 100 nM and below 100 nM.

The values above are taken from patent publication US10829481B2, “Benzimidazole derivatives as modulators of ROR-gamma” (Vitae Pharmaceuticals, LLC, priority 2016, dated 2020).
